Experimental data published in US20250381179A1, “CHROMAN-BASED COMPOUNDS FOR TREATING CANCER” (priority 2024, published 2025).
Entries after “also recorded” stand apart in the source; their conditions may differ.

Experiment: Phase 1 study: safety and tolerability (TEAEs, NCI CTCAE v5.0)
Method: The study employed an open-label, 3+3 design, with the option of adding backfill patients to each cohort cleared and deemed safe. […] Tumor responses were assessed every 2 cycles using RECIST v1.1 criteria. […] The study also involves an ongoing dose escalation study where participants receive 100 mg, 200 mg, 300 mg, 400 mg, and 600 mg once daily (QD) dose levels.
Safety was assessed through the analysis of the reported incidence of treatment-emergent AEs. Treatment-emergent AEs are those with an onset on or after the initiation of therapy and will be graded according to NCI CTCAE Version 5.0. Other safety endpoints, including laboratory results, vital signs, and ECG findings, were summarized for all patients in the Safety set.

[1] = Cohort 2/200 mg QD, patient 4, first listed event
[2] = Cohort 2/200 mg QD, patient 4, second listed event
[3] = Cohort 3/300 mg QD, patient 1, first listed event
[4] = Cohort 3/300 mg QD, patient 1, second listed event

O=C1CC[C@H](N2Cc3cc(N4CCN(CC5CCN(c6ccc([C@@H]7c8ccc(O)cc8OC[C@@H]7c7ccccc7)cc6F)CC5)CC4)ccc3C2=O)C(=O)N1 [compound (1-g), (S)-3-(5-(4-((1-(2-fluoro-4-((3S,4R)-7-hydroxy-3-phenylchroman-4-yl)phenyl)piperidin-4-yl)methyl)piperazin-1-yl)-1-oxoisoindolin-2-yl)piperidine-2,6-dione]
Duration of TEAE leading to dose interruption: Pain in extremity [1]: 56 days
Related to Compound (1-g), TEAE leading to dose interruption: Pain in extremity [1]: No
CTCAE Grade of TEAE leading to dose interruption: Pain in extremity [2]: 2
Related to Compound (1-g), TEAE leading to dose interruption: Pain in extremity [2]: No
participants with TEAEs that led to dose interruption (Cohort 3 (300 mg QD)): 2 participants
CTCAE Grade of TEAE leading to dose interruption: Anaemia (Cohort 3/300 mg QD, patient 1): 3
Related to Compound (1-g), TEAE leading to dose interruption: Anaemia (Cohort 3/300 mg QD, patient 1): No
CTCAE Grade of TEAE leading to dose interruption: Acute kidney injury [3]: 3
Duration of TEAE leading to dose interruption: Acute kidney injury [3]: 6 days
Related to Compound (1-g), TEAE leading to dose interruption: Acute kidney injury [3]: No
CTCAE Grade of TEAE leading to dose interruption: Acute kidney injury [4]: 3
Duration of TEAE leading to dose interruption: Acute kidney injury [4]: 7 days
Related to Compound (1-g), TEAE leading to dose interruption: Acute kidney injury [4]: No
CTCAE Grade of TEAE leading to dose interruption: Muscular weakness (Cohort 3/300 mg QD, patient 2): 2
CTCAE Grade of TEAE leading to dose interruption: Upper respiratory tract infection (Cohort 3/300 mg QD, patient 2): 2
Duration of TEAE leading to dose interruption: Upper respiratory tract infection (Cohort 3/300 mg QD, patient 2): 8 days
Related to Compound (1-g), TEAE leading to dose interruption: Muscular weakness (Cohort 3/300 mg QD, patient 2): No
Related to Compound (1-g), TEAE leading to dose interruption: Upper respiratory tract infection (Cohort 3/300 mg QD, patient 2): No
participants with TEAEs that led to dose interruption (Cohort 4 and 5 (400, 600 mg QD)): No participant experienced TEAEs that led to dose interruption
Constipation, Related-TEAE All Grades (N = 37): 3 n (%)
Constipation, Related-TEAE Grade ≥ 3 (N = 37): 0 n (%)
Constipation, TEAE All Grades (N = 37): 4 (11) n (%)
Constipation, TEAE Grade ≥ 3 (N = 37): 0 n (%)
Dehydration, Related-TEAE All Grades (N = 37): 0 n (%)
Dehydration, Related-TEAE Grade ≥ 3 (N = 37): 0 n (%)
Dehydration, TEAE All Grades (N = 37): 5 (14) n (%)
Dehydration, TEAE Grade ≥ 3 (N = 37): 2 (5) n (%)
Fatigue, Related-TEAE All Grades (N = 37): 2 n (%)
Fatigue, Related-TEAE Grade ≥ 3 (N = 37): 0 n (%)
Fatigue, TEAE All Grades (N = 37): 6 (16) n (%)
Fatigue, TEAE Grade ≥ 3 (N = 37): 1 (3) n (%)
Grade 5 event of seizure (N = 37): 1 event
Hot flush, Related-TEAE All Grades (N = 37): 5 n (%)
Hot flush, Related-TEAE Grade ≥ 3 (N = 37): 0 n (%)
Hot flush, TEAE All Grades (N = 37): 5 (14) n (%)
Hot flush, TEAE Grade ≥ 3 (N = 37): 0 n (%)
Nausea, Related-TEAE All Grades (N = 37): 5 n (%)
Nausea, Related-TEAE Grade ≥ 3 (N = 37): 0 n (%)
Nausea, TEAE All Grades (N = 37): 7 (19) n (%)
Nausea, TEAE Grade ≥ 3 (N = 37): 0 n (%)
Neutrophil count decreased, Related-TEAE All Grades (N = 37): 4 n (%)
Neutrophil count decreased, Related-TEAE Grade ≥ 3 (N = 37): 0 n (%)
Neutrophil count decreased, TEAE All Grades (N = 37): 6 (16) n (%)
Neutrophil count decreased, TEAE Grade ≥ 3 (N = 37): 1 (3) n (%)
TEAE constipation, participants (N = 37): 10.8%
TEAE dehydration, participants (N = 37): 13.5%
TEAE fatigue, participants (N = 37): 16.2%
TEAE hot flush, participants (N = 37): 13.5%
TEAE nausea, participants (N = 37): 18.9%
TEAE neutrophil count decreased, participants (N = 37): 16.2%
compound-related SAEs (N = 37): No compound (1-g)-related SAEs were observed
deaths reported, all assessed as unrelated to compound (1-g) (N = 37): 3 deaths
dose reductions or treatment discontinuations due to TEAEs (N = 37): no dose reductions or treatment discontinuations due to TEAEs
grade of treatment-related AEs (N = 37): All treatment-related AEs were Grade 1 or 2
participants with at least a TEAE (N = 37): 78%
patients experiencing SAEs (nine SAEs) (N = 37): 8 patients
related TEAE hot flush, participants (N = 37): 13.5%
related TEAE nausea, participants (N = 37): 13.5%
related TEAE neutrophil count decrease, participants (N = 37): 10.8%
relatedness of TEAEs that led to dose interruption (N = 37): None of these were considered related to compound (1-g)
participants with compound (1-g) related TEAEs (N = 37, fifteen participants): 40.5%
participants with Grade 23 TEAEs (N = 37, ten participants): 27.0%
Patients with Any Compound (1-g) related TEAE (Overall (N = 37)): 15 (40.5) n (%)
Patients with Any TEAE (Overall (N = 37)): 29 (78.4) n (%)
TEAE: Abdominal Distension (Overall (N = 37)): 1 (2.7) n (%)
TEAE: Abdominal Pain (Overall (N = 37)): 2 (5.4) n (%)
TEAE: Acute Kidney Injury (Overall (N = 37)): 1 (2.7) n (%)
TEAE: Adrenal Insufficiency (Overall (N = 37)): 1 (2.7) n (%)
TEAE: Alopecia (Overall (N = 37)): 1 (2.7) n (%)
TEAE: Anaemia (Overall (N = 37)): 2 (5.4) n (%)
TEAE: Anxiety (Overall (N = 37)): 1 (2.7) n (%)
TEAE: Arthralgia (Overall (N = 37)): 2 (5.4) n (%)
TEAE: Axillary Vein Thrombosis (Overall (N = 37)): 1 (2.7) n (%)
TEAE: Back Pain (Overall (N = 37)): 3 (8.1) n (%)
TEAE: Basal Cell Carcinoma (Overall (N = 37)): 1 (2.7) n (%)
TEAE: Breast Pain (Overall (N = 37)): 1 (2.7) n (%)
TEAE: Confusional State (Overall (N = 37)): 1 (2.7) n (%)
TEAE: Constipation (Overall (N = 37)): 4 (10.8) n (%)
TEAE: Cough (Overall (N = 37)): 1 (2.7) n (%)
TEAE: Covid-19 Pneumonia (Overall (N = 37)): 1 (2.7) n (%)
TEAE: Dehydration (Overall (N = 37)): 5 (13.5) n (%)
TEAE: Diarrhoea (Overall (N = 37)): 3 (8.1) n (%)
TEAE: Dizziness (Overall (N = 37)): 1 (2.7) n (%)
TEAE: Dysgeusia (Overall (N = 37)): 1 (2.7) n (%)
TEAE: Dyspepsia (Overall (N = 37)): 1 (2.7) n (%)
TEAE: Dyspnoea (Overall (N = 37)): 3 (8.1) n (%)
TEAE: Dysuria (Overall (N = 37)): 2 (5.4) n (%)
TEAE: Eructation (Overall (N = 37)): 1 (2.7) n (%)
TEAE: Fall (Overall (N = 37)): 2 (5.4) n (%)
TEAE: Fatigue (Overall (N = 37)): 6 (16.2) n (%)
TEAE: Flatulence (Overall (N = 37)): 2 (5.4) n (%)
TEAE: Fracture (Overall (N = 37)): 1 (2.7) n (%)
TEAE: Fungal Infection (Overall (N = 37)): 1 (2.7) n (%)
TEAE: Haematoma (Overall (N = 37)): 1 (2.7) n (%)
TEAE: Hot Flush (Overall (N = 37)): 5 (13.5) n (%)
TEAE: Hyperglycaemia (Overall (N = 37)): 1 (2.7) n (%)
TEAE: Hyperhidrosis (Overall (N = 37)): 3 (8.1) n (%)
TEAE: Hypokalaemia (Overall (N = 37)): 2 (5.4) n (%)
TEAE: Hypotension (Overall (N = 37)): 1 (2.7) n (%)
TEAE: Influenza Like Illness (Overall (N = 37)): 1 (2.7) n (%)
TEAE: Insomnia (Overall (N = 37)): 3 (8.1) n (%)
TEAE: Lower Respiratory Tract Congestion (Overall (N = 37)): 1 (2.7) n (%)
TEAE: Lymphocyte Count Decreased (Overall (N = 37)): 1 (2.7) n (%)
TEAE: Muscle Spasm (Overall (N = 37)): 1 (2.7) n (%)
TEAE: Muscular Weakness (Overall (N = 37)): 2 (5.4) n (%)
TEAE: Musculoskeletal Stiffness (Overall (N = 37)): 1 (2.7) n (%)
TEAE: Nail Disorder (Overall (N = 37)): 1 (2.7) n (%)
TEAE: Nasal Congestion (Overall (N = 37)): 1 (2.7) n (%)
TEAE: Nausea (Overall (N = 37)): 7 (18.9) n (%)
TEAE: Neutrophil Count Decreased (Overall (N = 37)): 6 (16.2) n (%)
TEAE: Oedema Peripheral (Overall (N = 37)): 2 (5.4) n (%)
TEAE: Ophthalmic Migraine (Overall (N = 37)): 1 (2.7) n (%)
TEAE: Oral Pain (Overall (N = 37)): 1 (2.7) n (%)
TEAE: Pain In Extremity (Overall (N = 37)): 1 (2.7) n (%)
TEAE: Pharyngitis (Overall (N = 37)): 1 (2.7) n (%)
TEAE: Platelet Count Decreased (Overall (N = 37)): 2 (5.4) n (%)
TEAE: Pleural Effusion (Overall (N = 37)): 1 (2.7) n (%)
TEAE: Pneumonia (Overall (N = 37)): 2 (5.4) n (%)
TEAE: Productive Cough (Overall (N = 37)): 1 (2.7) n (%)
TEAE: Rash Maculo-Papular (Overall (N = 37)): 2 (5.4) n (%)
TEAE: Rhinitis Allergic (Overall (N = 37)): 1 (2.7) n (%)
TEAE: Rib Fracture (Overall (N = 37)): 1 (2.7) n (%)
TEAE: Seizure (Overall (N = 37)): 1 (2.7) n (%)
TEAE: Sepsis (Overall (N = 37)): 1 (2.7) n (%)
TEAE: Tremor (Overall (N = 37)): 2 (5.4) n (%)
TEAE: Upper Respiratory Tract Infection (Overall (N = 37)): 3 (8.1) n (%)
TEAE: Urinary Tract Infection (Overall (N = 37)): 2 (5.4) n (%)
TEAE: Vaginal Haemorrhage (Overall (N = 37)): 1 (2.7) n (%)
TEAE: Vomiting (Overall (N = 37)): 2 (5.4) n (%)
related TEAE: Alopecia (Overall (N = 37)): 1 (2.7) n (%)
related TEAE: Arthralgia (Overall (N = 37)): 1 (2.7) n (%)
related TEAE: Constipation (Overall (N = 37)): 3 (8.1) n (%)
related TEAE: Diarrhea (Overall (N = 37)): 3 (8.1) n (%)
related TEAE: Dysgeusia (Overall (N = 37)): 1 (2.7) n (%)
related TEAE: Eructation (Overall (N = 37)): 1 (2.7) n (%)
related TEAE: Fatigue (Overall (N = 37)): 2 (5.4) n (%)
related TEAE: Flatulence (Overall (N = 37)): 1 (2.7) n (%)
related TEAE: Hyperhidrosis (Overall (N = 37)): 1 (2.7) n (%)
related TEAE: Nail Disorder (Overall (N = 37)): 1 (2.7) n (%)
related TEAE: Platelet Count Decreased (Overall (N = 37)): 1 (2.7) n (%)
related TEAE: Tremor (Overall (N = 37)): 1 (2.7) n (%)
related TEAE: Vomiting (Overall (N = 37)): 1 (2.7) n (%)
Compound (1-g) related TEAEs of CTCAE grade >=3 (all cohorts, N = 37): no Grade≥3 TEAEs were considered as related to compound (1-g); also recorded: No data meets output criteria
participants with TEAEs that led to dose interruption (all cohorts, N = 37): Nine
dose-related trend in incidence of related TEAEs (between 100 mg and 600 mg): No dose-related trends were evident
related TEAE: Hot Flush (human, in vivo): 5 (13.5) n (%)
related TEAE: Nausea (human, in vivo): 5 (13.5) n (%)
related TEAE: Neutrophil Count Decreased (human, in vivo): 4 (10.8) n (%)
